Results as given in US20130217664A1, “NOVEL COMPOUNDS USEFUL FOR THE TREATMENT OF DEGENERATIVE AND INFLAMMATORY DISEASES” (priority 2012, published 2013).
Read-outs that look alike come from different tables or passages of the source.

Legend:
human JAK2 = target: T1, human JAK2 (Homo sapiens, UniProt O60674); test: JAK2 inhibition assay (polyGT substrate / Ulight-JAK1 peptide); assay type: biochemical; conditions: recombinant human JAK2 catalytic domain; polyGT or Ulight-JAK1 peptide assay
T1 construct: catalytic domain (amino acids 808-1132; catalog number PV4210); GST; purchased Invitrogen PV4210
T1 sequence (O60674 808-1132): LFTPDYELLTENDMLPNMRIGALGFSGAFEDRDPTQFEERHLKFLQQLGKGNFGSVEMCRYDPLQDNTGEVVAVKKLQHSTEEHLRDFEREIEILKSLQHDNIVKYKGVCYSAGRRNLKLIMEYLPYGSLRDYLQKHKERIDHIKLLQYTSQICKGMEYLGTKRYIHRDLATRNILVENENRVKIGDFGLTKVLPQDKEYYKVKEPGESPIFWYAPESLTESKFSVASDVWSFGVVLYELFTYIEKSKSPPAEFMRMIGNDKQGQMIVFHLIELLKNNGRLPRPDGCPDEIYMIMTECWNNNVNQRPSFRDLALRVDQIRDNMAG
Method in brief: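 Two JAK2 formats: a ^33P-ATP polyGT assay (1 μM cold ATP, 90 min, 30° C., cpm read-out) and a Ulight-JAK1 peptide assay read by Europium-anti-phosphotyrosine fluorescence after 60 min at room temperature.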

[1] = test system: pSTAT1(2)-luciferase reporter in HeLa cells triggered with human OSM; test: JAK-STAT signalling assay; assay type: cell-based; conditions: read-out: JAK-STAT IC50
Method in brief: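 Compound added 60 min before 33 ng/mL (final) human OSM; after overnight stimulation at 37 °C, luciferase signal from a transiently transfected pSTAT1(2) reporter in HeLa cells was read, with LacZ as internal control. EC50 derived from percent-inhibition dose-response curves.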

CTLL-2 cell line = test: CTLL2 viability assay; assay type: cell-based; conditions: Mus musculus, IL-2 dependent CTLL2 viability, 24 h, ATP-lite
From the text: The protocol describes the methods to analyse the activity of compounds on their ability to sustain the IL2-dependent viability of CTLL2.
Final DMSO concentration was 0.1%.

BA/F3 cell line = test: BA/F3 viability assay; conditions: Mus musculus, BaF3, 48 h, read-out: BA/F3 IC50
[2] = Homo sapiens, HeLa, HeLa cells, pSTAT1(2)-luciferase reporter, human OSM 33 ng/mL
[3] = HeLa cells, pSTAT1(2)-luciferase reporter, human OSM 33 ng/mL

Row | SMILES | IC50 (human JAK2) | IC50 [1, 2] | IC50 (CTLL-2 cell line) | IC50 (BA/F3 cell line) | IC50 [1, 3] | IC50 ([1]; Homo sapiens, HeLa)
1 | CCc1cc(-c2cnn(C)c2)ccc1N(C)c1cc2c(cn1)ncn2C [Compound 93, N-(2-Ethyl-4-(1-methyl-1H-pyrazol-4-yl)phenyl)-N,1-dimethyl-1H-imidazo[4,5-d]pyridin-6-amine] | 0.01 to 100 nM | 1 to 500 nM | > 1000 nM | > 5000 nM | – | –
2 | CCc1cc(C2CN(S(C)(=O)=O)C2)ncc1N(C)c1cc2c(cn1)ncn2C [Compound 328, [4-Ethyl-6-(1-methanesulfonyl-azetidin-3-yl)-pyridin-3-yl]-methyl-(1-methyl-1H-imidazo[4,5-c]pyridin-6-yl)-amine] | 101 to 500 nM | – | > 1000 nM | > 5000 nM | > 1000 nM | –
3 | CCc1cc(-c2cnc(NC(C)=O)nc2)ccc1N(C)c1cc2c(cn1)ncn2C [Compound 115, N-(5-(3-Ethyl-4-(methyl(1-methyl-1H-imidazo[4,5-c]pyridin-6-yl)amino)phenyl)pyrimidin-2-yl)acetamide] | 101 to 500 nM | 1 to 500 nM | > 1000 nM | > 5000 nM | – | –
4 | CCc1cc(CO)ccc1N(C)c1cc2c(cn1)ncn2C [Compound 81, (3-Ethyl-4-(methyl(1-methyl-1H-imidazo[4,5-c]pyridin-6-yl)amino)phenyl)MeOH] | 101 to 500 nM | 1 to 500 nM | > 1000 nM | > 5000 nM | – | –
5 | CCc1cc(-c2cncnc2)ccc1N(C)c1cc2c(cn1)ncn2C [Compound 95, N-(2-ethyl-4-(pyrimidin-5-yl)phenyl)-N,1-dimethyl-1H-imidazo[4,5-c]pyridin-6-amine] | 101 to 500 nM | 501 to 1000 nM | > 1000 nM | > 5000 nM | – | –
6 | CCc1cc(CNS(C)(=O)=O)cc(F)c1N(C)c1cc2c(cn1)ncn2C [Compound 323, N-{3-Ethyl-5-fluoro-4-[methyl-(1-methyl-1H-imidazo[4,5-c]pyridin-6-yl)-amino]-benzyl}-methanesulfonamide] | 0.01 to 100 nM | 1 to 500 nM | > 1000 nM | > 5000 nM | – | –
7 | Cc1cc(O)ccc1N(C)c1cc2c(cn1)ncn2C [Compound 38, 3-Methyl-4-(methyl(1-methyl-1H-imidazo[4,5-c]pyridin-6-yl)amino)phenol] | > 1000 nM | > 1000 nM | – | – | – | –
8 | CCc1cc(-c2ccc(CN)s2)ncc1N(C)c1cc2c(cn1)ncn2C [Compound 303, [6-(5-Aminomethyl-thiophen-2-yl)-4-ethyl-pyridin-3-yl]-methyl-(1-methyl-1H-imidazo[4,5-c]pyridin-6-yl)-amine] | > 1000 nM | – | – | – | > 1000 nM | –
9 | CCc1cc(C(=O)NC)ccc1N(C)c1cc2c(cn1)ncn2C [Compound 85] | 501 to 1000 nM | > 1000 nM | – | – | – | –
10 | Cc1cc(CO)ccc1N(C)c1cc2c(cn1)ncn2C [Compound 29, (3-Methyl-4-(methyl(1-methyl-1H-imidazo[4,5-c]pyridin-6-yl)amino)phenyl) MeOH] | > 1000 nM | > 1000 nM | – | – | – | –
11 | COc1ccc(S(=O)(=O)N2CCCCC2)cc1N(C)c1cc2c(cn1)ncn2C [Compound 314, [2-Methoxy-5-(piperidine-1-sulfonyl)-phenyl]-methyl-(1-methyl-1H-imidazo[4,5-d]pyridin-6-yl)-amine] | > 1000 nM | – | – | – | > 1000 nM | –
12 | Cc1cc(-c2cncnc2)ccc1N(C)c1cc2c(cn1)ncn2C [Compound 72, N,1-dimethyl-N-(2-methyl-4-(pyrimidin-5-yl)phenyl)-1H-imidazo[4,5-c]pyridin-6-amine] | > 1000 nM | > 1000 nM | – | – | – | –
13 | Cc1ccc(OCCCC#N)cc1N(C)c1cc2c(cn1)ncn2C [Compound 60, 4-(4-methyl-3-(methyl(1-methyl-1H-imidazo[4,5-c]pyridin-6-yl)amino)phenoxy)butane nitrile] | > 1000 nM | > 1000 nM | – | – | – | –
14 | Cc1c(OCC#N)cccc1N(C)c1cc2c(cn1)ncn2C [Compound 64, 2-(2-methyl-3-(methyl(1-methyl-1H-imidazo[4,5-c]pyridin-6-yl)amino)phenoxy)acetoni-trile] | 101 to 500 nM | > 1000 nM | – | – | – | –
15 | CCc1cc(C(=O)OC)ccc1N(C)c1cc2c(cn1)ncn2C [Compound 80, Methyl 3-ethyl-4-(methyl(1-methyl-1H-imidazo[4,5-c]pyridin-6-yl)amino)benzoate] | 101 to 500 nM | > 1000 nM | – | – | – | –
16 | CCc1cc(-c2ccsc2)ccc1N(C)c1cc2c(cn1)ncn2C [Compound 127, N-(2-ethyl-4-(thiophen-3-yl)phenyl)-N,1-dimethyl-1H-imidazo[4,5-c]pyridin-6-amine] | 101 to 500 nM | 1 to 500 nM | – | – | – | –
17 | CCc1cn(CCC#N)nc1N(C)c1cc2c(cn1)ncn2C [Compound 316, 3-{4-Ethyl-3-[methyl-(1-methyl-1H-imidazo[4,5-c]pyridin-6-yl)-amino]-pyrazol-1-yl}-propionitrile] | > 1000 nM | – | – | – | – | > 1000 nM

Row | SMILES | IC50 (human JAK2) | IC50 [1, 2] | IC50 (CTLL-2 cell line) | IC50 (BA/F3 cell line) | IC50 [1, 3] | IC50 ([1]; Homo sapiens, HeLa)
18 | Cc1ccc(OCC#N)cc1N(C)c1cc2c(cn1)ncn2C [Compound 57, 2-(4-methyl-3-(methyl(1-methyl-1H-imidazo[4,5-c]pyridin-6-yl)amino)phenoxy)acetoni-trile] | 101 to 500 nM | > 1000 nM | – | – | – | –
19 | CCc1cc(C(C)(C)O)ccc1N(C)c1cc2c(cn1)ncn2C [Compound 103, 2-(3-Ethyl-4-(methyl(1-methyl-1H-imidazo[4,5-c]pyridin-6-yl)amino)phenyl)propan-2-ol] | 101 to 500 nM | > 1000 nM | – | – | – | –
20 | CCc1cc(C(=O)NCCC#N)ccc1N(C)c1cc2c(cn1)ncn2C [Compound 86, N-(2-Cyanoethyl)-3-ethyl-4-(methyl(1-methyl-1H-imidazo[4,5-c]pyridin-6-yl)amino)benzamide] | 501 to 1000 nM | > 1000 nM | – | – | – | –
21 | CCNC(=O)c1ccc(N(C)c2cc3c(cn2)ncn3C)c(CC)c1 [Compound 102, N,3-diethyl-4-(methyl(1-methyl-1H-imidazo[4,5-c]pyridin-6-yl)amino)benzamide] | > 1000 nM | > 1000 nM | – | – | – | –
22 | CCc1cc(CNS(=O)(=O)C(F)F)ncc1N(C)c1cc2c(cn1)ncn2C [Compound 343, N-{4-Ethyl-5-[methyl-(1-methyl-1H-imidazo[4,5-c]pyridin-6-yl)-amino]-pyridin-2-ylmethyl}-C,C-difluoro-methane sulfonamide] | 101 to 500 nM | – | > 1000 nM | – | 501 to 1000 nM | –
23 | CN(c1cc2c(cn1)ncn2C)c1ccc(CNC(=O)C(F)F)cc1F [Compound 320] | 0.01 to 100 nM | > 1000 nM | – | – | – | –
24 | CCc1cc(C2CN(C(C)=O)C2)ncc1N(C)c1cc2c(cn1)ncn2C [Compound 332, 1-(3-{4-Ethyl-5-[methyl-(1-methyl-1H-imidazo[4,5-c]pyridin-6-yl)-amino]-pyridin-2-yl}-azetidin-1-yl)-ethanone] | 501 to 1000 nM | – | – | – | > 1000 nM | –
25 | CCc1cc(CNC(=O)C(F)F)c(F)cc1N(C)c1cc2c(cn1)ncn2C [Compound 326, N-{5-Ethyl-2-fluoro-4-[methyl-(1-methyl-M-imidazo[4,5-c]pyridin-6-yl)-amino]-benzyl}-2,2-difluoro-acetamide] | 0.01 to 100 nM | 501 to 1000 nM | – | – | – | –
26 | CCc1ccc(F)cc1N(C)c1cc2c(cn1)ncn2C [Compound 84, N-(2-ethyl-5-fluorophenyl)-N,1-dimethyl-1H-imidazo[4,5-c]pyridin-6-amine] | 101 to 500 nM | 501 to 1000 nM | – | – | – | –
27 | COc1cc(S(=O)(=O)N2CCOCC2)ccc1N(C)c1cc2c(cn1)ncn2C [Compound 315, [2-Methoxy-4-(morpholine-4-sulfonyl)-phenyl]-methyl-(1-methyl-1H-imidazo[4,5-d]pyridin-6-yl)-amine] | > 1000 nM | – | – | – | > 1000 nM | –
28 | Cc1ccc(OCc2ccccc2)cc1N(C)c1cc2c(cn1)ncn2C [Compound 56, N-(5-(benzyloxy)-2-methylphenyl)-N,1-dimethyl-1H-imidazo[4,5-c]pyridin-6-amine] | > 1000 nM | – | – | – | > 1000 nM | –
29 | COc1cc(-c2c(C)nn(C)c2C)ncc1N(C)c1cc2c(cn1)ncn2C [Compound 312] | > 1000 nM | – | – | – | > 1000 nM | –
30 | Cc1ccc(OCC(C)C)cc1N(C)c1cc2c(cn1)ncn2C [Compound 63, N-(5-isobutoxy-2-methylphenyl)-N,1-dimethyl-1H-imidazo[4,5-c]pyridin-6-amine] | > 1000 nM | > 1000 nM | – | – | – | –
31 | CCc1cc(-c2ccc(C#N)nc2)ccc1N(C)c1cc2c(cn1)ncn2C [Compound 114, 5-(3-ethyl-4-(methyl(1-methyl-1H-imidazo[4,5-c]pyridin-6-yl)amino)phenyl)picolino-nitrile] | 101 to 500 nM | 1 to 500 nM | – | – | – | –
32 | CCc1cc(C(=O)NCC#N)ccc1N(C)c1cc2c(cn1)ncn2C [Compound 120, N-(cyanomethyl)-3-ethyl-4-(methyl(1-methyl-1H-imidazo[4,5-c]pyridin-6-yl)amino)benzamide] | 101 to 500 nM | > 1000 nM | – | – | – | –
33 | CCc1cc(CNS(=O)(=O)C(F)F)cc(F)c1N(C)c1cc2c(cn1)ncn2C [Compound 324, N-{3-Ethyl-5-fluoro-4-[methyl-(1-methyl-1H-imidazo[4,5-c]pyridin-6-yl)-amino]-benzyl}-C,C-difluoro-methanesulfonamide] | 0.01 to 100 nM | 1 to 500 nM | – | – | – | –
